Measurements: publication PMC9996372, “Aim18p and Aim46p are chalcone isomerase domain–containing mitochondrial hemoproteins in Saccharomyces cerevisiae” (The Journal of Biological Chemistry, 2023)

Columns and labels:
[1] = molecular target: T1, AtFAP1-Nd45-WT (Arabidopsis thaliana, UniProt Q9M1X2); settings: 5 μM protein, 50 μM fatty acid, 100 mM Hepes pH 7.5, 150 mM NaCl, 1 h at RT; versus DMSO
T1 construct: gene FAP1

[2] = molecular target: T2, AtCHI1-FL-WT (Arabidopsis thaliana, UniProt P41088); assay: chalcone isomerase assay, depletion of A381; type: biochemical; settings: 10 nM protein, 200 μM naringenin chalcone, 50 mM Hepes pH 7.5, 150 mM NaCl, 5% EtOH; product naringenin
T2 construct: gene CHI1; full-length; N-terminal 8X-His tag
T2 sequence (P41088 1-246): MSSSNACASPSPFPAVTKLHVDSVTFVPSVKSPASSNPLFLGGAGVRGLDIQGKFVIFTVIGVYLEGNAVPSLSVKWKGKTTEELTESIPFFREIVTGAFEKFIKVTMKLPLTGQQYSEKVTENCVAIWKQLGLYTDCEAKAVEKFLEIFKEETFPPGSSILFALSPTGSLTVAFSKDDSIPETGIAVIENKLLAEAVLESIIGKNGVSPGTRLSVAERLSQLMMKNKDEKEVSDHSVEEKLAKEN

T1 sequence (Q9M1X2 46-279): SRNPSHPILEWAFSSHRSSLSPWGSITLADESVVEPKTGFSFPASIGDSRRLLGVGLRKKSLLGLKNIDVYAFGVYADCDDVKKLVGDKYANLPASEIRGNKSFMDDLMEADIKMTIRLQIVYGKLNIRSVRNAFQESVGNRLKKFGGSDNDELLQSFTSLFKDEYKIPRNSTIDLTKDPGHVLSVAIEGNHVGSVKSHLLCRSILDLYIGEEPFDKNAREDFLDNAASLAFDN

| SMILES | ΔTm [1] | chalcone isomerase assay, depletion of A381 [2] |
| --- | --- | --- |
| CC/C=C\C/C=C\C/C=C\CCCCCCCC(=O)O [Linolenic acid] | AtFAP1-Nd45-WT was the only protein stabilized by the addition of linolenic acid | – |
| O=C(/C=C/c1ccc(O)cc1)c1c(O)cc(O)cc1O [naringenin chalcone] | – | Only AtCHI-WT rapidly converted naringenin chalcone to naringenin |
